Series [1] deals with human peripheral blood mononuclear cells TNF-α. As to the kind of experiment: Repression of TNF-α in human peripheral blood mononuclear cells (LPS, ELISA). To be noted: PBMC, 3-fold diluted; for IC50: read-out: hPBMC IC50; for Emax: maximum effect value. Type of series: cell-based. As for the experimental part: Experimental purpose: To express the anti-inflammatory activity of the test compound at the cellular level according to the level of TNF-α in human peripheral blood mononuclear cells (hPBMC).
• [0488] 1) The frozen cells were quickly thawed by continuous stirring in a 37° C. water bath. • [0489] 2) 25 mL of fresh pre-heated thawed culture medium was added to a 50 mL centrifuge tube. Then the cells were added gently, drop by drop. • [0490] 3) Cells were centrifuged at 2000 rpm for 10 min (ascending speed: 9, descending speed: 1). • [0491] 4) The supernatant was discarded and the cell particles were resuspended in 25 mL of freshly pre-heated RPMI 1640 culture medium.
• [0493] 5) After thawing and resuscitating the suspended cells, the number of cells was counted and the total number of cells required for the experiment was calculated. • [0494] 6) The cell suspension was diluted with an appropriate volume of cell culture medium. • [0495] 7) The cell suspension was poured into a sterile disposable container. • [0496] 8) 100,000 cells/(100 µL) of cell suspension was transferred to each well of a 96-well plate. • [0497] 9) The cell plates were placed in humidified air, 5% CO2 incubator, 37° C. for 2 hours.
[…] In the second step, the serum-free culture medium was diluted 125 times, and the concentration of DMSO was 0.8%. Then 16.8 µL of the compound diluted in culture medium was transferred to a 100 µL cell plate, and the concentration of DMSO was 0.114%.
After adding the compound, the cell plates were incubated in a 37° C. 5% CO2 incubator for 1 hour.
In the first step, LPS was diluted with ultrapure water to a storage concentration of 1 mg/mL. In the second step, the storage concentration of LPS was diluted to 1 µg/mL in serum-free culture medium. In the third step, serum-free culture medium was 1666.666-fold diluted. Then 16.8 µL of LPS that has been diluted with culture medium was transferred to a 116.8 µL cell plate. At this time, the final concentration of DMSO was 0.1%. After adding LPS, the cell plate was put into a 37° C., 5% CO2 incubator and incubated for 18 hours.
• [0505] 1. The TNF-α antibody was diluted to 1× in the coating solution, and then 100 µL per well was added to a 96-well high-binding performance plate, and the plate was sealed with a membrane and placed at 4° C. for 18 hours. • [0506] 2. 2000 mL of wash buffer was prepared to 1x for later use.
• [0508] 3. After the plate was coated overnight, the coating solution was poured out and washed 3 times with 300 µL of washing buffer per well. • [0509] 4. After the plate was washed, 200 µL of sealing buffer was added to each well, and the plate was sealed with membrane. Incubated for one hour in a 25° C. incubator. • [0510] 5. The cell plates incubated for 18 hours were placed in a centrifuge for centrifugation, temperature: 25° C., speed: 2000 rpm, time: 10 min, ascending speed: 9, descending speed: 1. After centrifugation, 100 µL of cell supernatant from each well was transferred to a 3599 cell plate, and then placed in a 4° C. refrigerator for later use. • [0511] 6. The cell supernatant was diluted 40 times with sealing buffer and placed in a 4° C. refrigerator for later use, and the standard was also placed in a 4° C. refrigerator for later use. • [0512] 7. After the sealing was completed, the sealing solution was poured out and washed three times with 300 µL of washing buffer per well. • [0513] 8. The diluted cell supernatant samples and standards were added to the ELISA plate, and the plate was sealed with membrane. Then incubated for 2 hours in a 25° C. incubator. • [0514] 9. The liquid in the plate was poured out and washed 5 times with 300 µL of washing buffer per well. • [0515] 10. Antibodies were prepared and 100 µL was added to each well and the plate was sealed with sealing membrane. Then incubated for one hour in a 25° C. incubator. • [0516] 11. The liquid in the plate was poured out and washed 7 times with 300 µL of washing buffer per well. • [0517] 12. […]

Series [2] in a line: In vivo pharmacokinetic properties study in male SD rats. The settings on record: rat, plasma, iv 2 mg/kg; for half-life: read-out: T½ (converted); for Vd: read-out: Vdss. The procedure: Experimental purpose: The purpose of this study was to determine the pharmacokinetic parameters of compounds in male SD rats.
Experimental methods: In this project, two male SD rats were intravenously administered with a dose of 2 mg/kg and a concentration of 0.4 mg/mL. Plasma samples were collected at 0 h (before administration) and 0.0833, 0.25, 0.5, 1, 2, 4, 6, 8, 24 h after administration. Then the collected samples were analyzed by LC-MS/MS and the data were collected. The collected analytical data were used to calculate the relevant pharmacokinetic parameters using Phoenix WinNonlin 6.3 software.

For another series, the target named is T1, CYP3A4 (Homo sapiens, UniProt P08684).
T1 construct: incubation system containing human liver microsomes, probe substrates, and co-factors; tissue Corning Inc. or other suppliers; host or cells: mixed (pooled) human liver microsomes
T1 sequence (P08684 whole entry): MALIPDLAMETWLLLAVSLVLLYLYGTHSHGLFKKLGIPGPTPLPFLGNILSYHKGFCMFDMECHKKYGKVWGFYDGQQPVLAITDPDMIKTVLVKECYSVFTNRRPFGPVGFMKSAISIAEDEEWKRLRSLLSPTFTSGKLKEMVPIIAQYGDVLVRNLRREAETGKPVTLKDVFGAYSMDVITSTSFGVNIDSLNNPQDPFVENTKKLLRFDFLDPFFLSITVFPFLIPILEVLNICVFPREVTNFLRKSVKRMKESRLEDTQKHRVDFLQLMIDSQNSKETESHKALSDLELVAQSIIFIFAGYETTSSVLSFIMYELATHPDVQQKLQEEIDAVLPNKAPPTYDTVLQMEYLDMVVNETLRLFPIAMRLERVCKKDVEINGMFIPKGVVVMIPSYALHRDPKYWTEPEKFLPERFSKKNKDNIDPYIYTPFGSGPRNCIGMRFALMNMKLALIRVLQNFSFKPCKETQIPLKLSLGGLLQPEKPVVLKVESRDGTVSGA
As to the kind of experiment: Human liver microsomal CYP repression experiment. Type of series: in vitro ADME. As for the experimental part:
The purpose of the research project was to evaluate the repression of the test sample on human liver microsomal cytochrome P450 isoenzyme (CYP3A4) using a 5-in-1 probe substrate of CYP isoenzyme.
Mixed human liver microsomes (HLM) were purchased from Corning Inc. (Steuben, New York, USA) or other suppliers and stored at temperatures below -70° C. before use.
The diluted series concentration of the test sample was added to the incubation system containing human liver microsomes, probe substrates, and co-factors of the circulating system, and the control without the test sample but with solvent was used as the enzyme activity control (100%). The concentration of metabolites produced by the probe substrate in the sample was determined by liquid chromatography-tandem mass spectrometry (LC-MS/MS). Non-linear regression analysis of the mean percent activity of the test sample versus concentration was performed using SigmaPlot (V. 11). The IC50 values were calculated by a three- or four-parameter inverse logarithmic equation.
On the technique in general: Liver microsomes are vesicles of endoplasmic reticulum, rich in cytochrome P450 enzymes.

The mark [3] stands for this setting: absolute IC50, test Top concentration 10000 nM, 8 concentration (unmarked).
Where [4] appears, read: test Top concentration 10000 nM, 8 concentration (unmarked).
Setting [5] is: absolute IC50, test Top concentration 100 nM, 8 concentration (***).
Where [6] appears, read: test Top concentration 100 nM, 8 concentration (***).
Where [7] appears, read: absolute IC50, test Top concentration 1000 nM, 8 concentration (*).
[8] abbreviates: test Top concentration 1000 nM, 8 concentration (*).

Where two headings read alike, the source gives them in different places.

Usually IC50 stands for the concentration at which inhibition is half-maximal. By Emax is commonly meant the size of the effect at its maximum, as opposed to the concentration needed. One may read the clearance as the volume of plasma or blood freed of the substance per unit of time. Low readings indicate inefficient removal, high ones efficient removal.

As to `C[C@H](NC(=O)C(C)(F)F)[C@H](Oc1ccc2c(cnn2-c2ccc3c(c2)CCCO3)c1)c1cc(F)cc(F)c1` [WX002], the IC50 in series [1] (setting [3]) worked out at 15.1 nM. This compound returned an Emax in series [1] (setting [4]) of 84.6%.

For `C[C@H](NC(=O)C(C)(F)F)[C@H](Oc1ccc2c(cnn2-c2ccc3nccn3c2)c1)c1cc(F)cc(F)c1` [WX003], the concentration for half-maximal inhibition (IC50) in series [1] (setting [5]) was found to be 0.97 nM. This compound came in with an Emax in series [1] (setting [6]) of 84.3%.

Consider `CC(C)[C@H](NC(=O)C(C)(F)F)[C@H](Oc1ccc2c(cnn2-c2ccc3nccn3c2)c1)c1ccccc1` [WX004], for which the IC50 in series [1] (setting [7]) was 15.9 nM. The compound further displayed an Emax in series [1] (setting [8]) of 78.5%.

Take `CC(C)[C@H](NC(=O)C(C)(F)F)[C@H](Oc1ccc2c(cnn2-c2ccc3nncn3c2)c1)c1cc(F)cc(F)c1` [WX017]: the IC50 in series [1] (setting [3]) was found to be 7.63 nM. This compound registered an Emax in series [1] (setting [4]) of 83.1%.

Regarding `CC(C)[C@H](NC(=O)C(C)(F)F)[C@H](Oc1ccc2c(cnn2-c2ccc3nncn3c2)c1)c1ccccc1` [WX018], in series [1] (setting [7]), the IC50 came out at 18.6 nM. In series [1] (setting [8]), this compound yielded an Emax of 69.3%.

With `C[C@H](NC(=O)C(C)(F)F)[C@H](Oc1ccc2c(cnn2-c2ccc3nncn3c2)c1)c1cc(F)cc(F)c1` [WX019], in series [2], the clearance is 9.74 mL/min/kg, the half-life was 180 min and the Vd was 1.28 L/kg. Also, the “repression on CYP3A4 (in words)” value on CYP3A4 (conclusion on Table 3) is “significantly improve the repression of CYP3A4”. On CYP3A4 (mixed human liver microsomes, 5-in-1 probe substrate), this compound had an IC50 of 9.12 µM. The IC50 in series [1] (setting [5]) worked out at 0.98 nM. This compound also yielded an Emax in series [1] (setting [6]) of 90%.

As to `C[C@H](NC(=O)C(C)(F)F)[C@H](Oc1ccc2c(cnn2-c2ccc3ncnn3c2)c1)c1cc(F)cc(F)c1` [WX034], the IC50 in series [1] (setting [7]) came to 12.6 nM. In series [1] (setting [8]), this compound gave an Emax of 79.3%.

For `C[C@H](NC(=O)C(C)(F)F)[C@H](Oc1ccc2c(cnn2-c2ccc3nnnn3c2)c1)c1cc(F)cc(F)c1` [WX035], the IC50 in series [1] (setting [7]) was 11.6 nM. Also, the Emax in series [1] (setting [8]) stood at 100%.

On to `C[C@H](NC(=O)C(C)(F)F)[C@H](Oc1ccc2c(cnn2-c2cnn(C)c2)c1)c1ccccc1` [WX043], for which the IC50 in series [1] (setting [7]) was 4.9 nM. In series [1] (setting [8]), this compound returned an Emax of 88.8%.

On to `C[C@H](NC(=O)C(C)(F)F)[C@H](Oc1ccc2c(cnn2-c2cn(C)nn2)c1)c1cc(F)cc(F)c1` [WX051], for which, in series [2], the clearance was determined as 9.29 mL/min/kg, the half-life was 212 min and the Vd is 2.61 L/kg. Further, the IC50 in series [1] (absolute IC50, test Top concentration 500 nM, 8 concentration (**)) was 10.4 nM. Further, the Emax in series [1] (test Top concentration 500 nM, 8 concentration (**)) came to 74.9%.

For the origin of these results see patent US20230167068A1, “BENZOPYRAZOLE COMPOUND” (MEDSHINE DISCOVERY INC., priority 2019, published 2023).
